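Interpolation was linear, between the two tested concentrations surrounding the appropriate level; five concentrations were tested over 48 hours in 96-well plates. The concentration for 50% growth inhibition is given as GI50. TGI is the concentration that stops growth completely.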
Experiments:
Assay in all cases: NCI-60 cell line screen, 48 h
786-0 renal = test system: 786-0 renal
A498 renal = test system: A498 renal
A549 NSCLC = test system: A549 NSCLC
ACHN renal = test system: ACHN renal
BT-549 breast = test system: BT-549 breast
CAKI-1 renal = test system: CAKI-1 renal
CCRF-CEM leukemia = test system: CCRF-CEM leukemia
COLO 205 colon = test system: COLO 205 colon
DU-145 prostate = test system: DU-145 prostate
EKVX NSCLC = test system: EKVX NSCLC
HCC-2998 colon = test system: HCC-2998 colon
HCT-116 colon = test system: HCT-116 colon
HCT-15 colon = test system: HCT-15 colon
HL-60(TB) leukemia = test system: HL-60(TB) leukemia
HOP-62 NSCLC = test system: HOP-62 NSCLC
HOP-92 NSCLC = test system: HOP-92 NSCLC
HS 578T breast = test system: HS 578T breast
HT29 colon = test system: HT29 colon
IGROV1 ovarian = test system: IGROV1 ovarian
K-562 leukemia = test system: K-562 leukemia
KM12 colon = test system: KM12 colon
M14 melanoma = test system: M14 melanoma
MALME-3M melanoma = test system: MALME-3M melanoma
MCF7 breast = test system: MCF7 breast
MDA-MB-231 breast = test system: MDA-MB-231 breast
MDA-MB-435 = test system: MDA-MB-435
MDA-MB-468 breast = test system: MDA-MB-468 breast
MOLT-4 leukemia = test system: MOLT-4 leukemia
NCI-H226 lung = test system: NCI-H226 lung
NCI-H23 lung = test system: NCI-H23 lung
NCI-H460 lung = test system: NCI-H460 lung
NCI-H522 lung = test system: NCI-H522 lung
NCI/ADR-RES ovarian = test system: NCI/ADR-RES ovarian
OVCAR-3 ovarian = test system: OVCAR-3 ovarian
OVCAR-4 ovarian = test system: OVCAR-4 ovarian
OVCAR-5 ovarian = test system: OVCAR-5 ovarian
OVCAR-8 ovarian = test system: OVCAR-8 ovarian
PC-3 prostate = test system: PC-3 prostate
RPMI-8226 leukemia = test system: RPMI-8226 leukemia
RXF 393 renal = test system: RXF 393 renal
SF-268 CNS = test system: SF-268 CNS
SF-295 CNS = test system: SF-295 CNS
SF-539 CNS = test system: SF-539 CNS
SK-MEL-2 melanoma = test system: SK-MEL-2 melanoma
SK-MEL-28 melanoma = test system: SK-MEL-28 melanoma
SK-MEL-5 melanoma = test system: SK-MEL-5 melanoma
SK-OV-3 ovarian = test system: SK-OV-3 ovarian
SN12C renal = test system: SN12C renal
SNB-19 CNS = test system: SNB-19 CNS
SNB-75 CNS = test system: SNB-75 CNS
SR leukemia = test system: SR leukemia
SW-620 colon = test system: SW-620 colon
T-47D breast = test system: T-47D breast
TK-10 renal = test system: TK-10 renal
U251 CNS = test system: U251 CNS
UACC-257 melanoma = test system: UACC-257 melanoma
UACC-62 melanoma = test system: UACC-62 melanoma
UO-31 renal = test system: UO-31 renal

Cn1cc(-c2cc(N)n3nc(-c4cn(C)c5ccccc45)cc3n2)c2cc(Cl)ccc21
GI50 (786-0 renal): 1.74 µM | TGI (786-0 renal): 3.45 µM | GI50 (A498 renal): 14.3 µM | TGI (A498 renal): 32.3 µM | GI50 (A549 NSCLC): 2.68 µM | TGI (A549 NSCLC): 10.7 µM | GI50 (ACHN renal): 2.05 µM | TGI (ACHN renal): 4.46 µM | GI50 (BT-549 breast): 14.6 µM | TGI (BT-549 breast): 33.4 µM | GI50 (CAKI-1 renal): 2 µM | TGI (CAKI-1 renal): 5.54 µM | GI50 (CCRF-CEM leukemia): 3.22 µM | TGI (CCRF-CEM leukemia): 15.3 µM | GI50 (COLO 205 colon): 1.97 µM | TGI (COLO 205 colon): 3.95 µM | GI50 (DU-145 prostate): 6.37 µM | TGI (DU-145 prostate): > 100 µM | GI50 (EKVX NSCLC): 12.6 µM | TGI (EKVX NSCLC): 37.4 µM | GI50 (HCC-2998 colon): 1.78 µM | TGI (HCC-2998 colon): 3.34 µM | GI50 (HCT-116 colon): 1.87 µM | TGI (HCT-116 colon): 3.87 µM | GI50 (HCT-15 colon): 1.84 µM | TGI (HCT-15 colon): 3.95 µM | GI50 (HL-60(TB) leukemia): 2.35 µM | TGI (HL-60(TB) leukemia): 5.81 µM | GI50 (HOP-62 NSCLC): 5.29 µM | TGI (HOP-62 NSCLC): 26.4 µM | GI50 (HOP-92 NSCLC): 2.23 µM | TGI (HOP-92 NSCLC): 6.51 µM | GI50 (HS 578T breast): 3.3 µM | TGI (HS 578T breast): 19.4 µM | GI50 (HT29 colon): 1.79 µM | TGI (HT29 colon): 3.51 µM | GI50 (IGROV1 ovarian): 2.45 µM | TGI (IGROV1 ovarian): 8.26 µM | GI50 (K-562 leukemia): 2.97 µM | TGI (K-562 leukemia): 10.6 µM | GI50 (KM12 colon): 2.15 µM | TGI (KM12 colon): 4.83 µM | GI50 (M14 melanoma): 1.95 µM | TGI (M14 melanoma): 4.71 µM | GI50 (MALME-3M melanoma): 1.71 µM | TGI (MALME-3M melanoma): 3.22 µM | GI50 (MCF7 breast): 1.77 µM | TGI (MCF7 breast): 4.13 µM | GI50 (MDA-MB-231 breast): 1.82 µM | TGI (MDA-MB-231 breast): 3.3 µM | GI50 (MDA-MB-435): 2.06 µM | TGI (MDA-MB-435): 4.26 µM | GI50 (MDA-MB-468 breast): 2.2 µM | TGI (MDA-MB-468 breast): 5.36 µM | GI50 (MOLT-4 leukemia): 2.58 µM | TGI (MOLT-4 leukemia): 9.61 µM | GI50 (NCI-H226 lung): > 100 µM | TGI (NCI-H226 lung): > 100 µM | GI50 (NCI-H23 lung): 3.75 µM | TGI (NCI-H23 lung): 20.5 µM | GI50 (NCI-H460 lung): 2.2 µM | TGI (NCI-H460 lung): 4.96 µM | GI50 (NCI-H522 lung): 1.6 µM | TGI (NCI-H522 lung): 3.48 µM | GI50 (NCI/ADR-RES ovarian): 3.03 µM | TGI (NCI/ADR-RES ovarian): 9.38 µM | GI50 (OVCAR-3 ovarian): 11.3 µM | TGI (OVCAR-3 ovarian): 28.1 µM | GI50 (OVCAR-4 ovarian): 3.28 µM | TGI (OVCAR-4 ovarian): 11.3 µM | GI50 (OVCAR-5 ovarian): 5.16 µM | TGI (OVCAR-5 ovarian): 25.5 µM | GI50 (OVCAR-8 ovarian): 2.09 µM | TGI (OVCAR-8 ovarian): 4.59 µM | GI50 (PC-3 prostate): 1.93 µM | TGI (PC-3 prostate): 4.91 µM | GI50 (RPMI-8226 leukemia): 3.27 µM | TGI (RPMI-8226 leukemia): 14.9 µM | GI50 (RXF 393 renal): 1.98 µM | TGI (RXF 393 renal): 4.01 µM | GI50 (SF-268 CNS): 8.07 µM | TGI (SF-268 CNS): 32.7 µM | GI50 (SF-295 CNS): 1.92 µM | TGI (SF-295 CNS): 4.26 µM | GI50 (SF-539 CNS): 1.85 µM | TGI (SF-539 CNS): 3.83 µM | GI50 (SK-MEL-2 melanoma): 1.84 µM | TGI (SK-MEL-2 melanoma): 4.1 µM | GI50 (SK-MEL-28 melanoma): 1.69 µM | TGI (SK-MEL-28 melanoma): 3.08 µM | GI50 (SK-MEL-5 melanoma): 3.5 µM | TGI (SK-MEL-5 melanoma): 13 µM | GI50 (SK-OV-3 ovarian): 18 µM | TGI (SK-OV-3 ovarian): 48.2 µM | GI50 (SN12C renal): 1.77 µM | TGI (SN12C renal): 3.33 µM | GI50 (SNB-19 CNS): 3.45 µM | TGI (SNB-19 CNS): 23.8 µM | GI50 (SNB-75 CNS): 10.6 µM | TGI (SNB-75 CNS): 26.6 µM | GI50 (SR leukemia): 2.03 µM | TGI (SR leukemia): 6.77 µM | GI50 (SW-620 colon): 2.17 µM | TGI (SW-620 colon): 4.8 µM | GI50 (T-47D breast): 10.1 µM | TGI (T-47D breast): 33.3 µM | GI50 (TK-10 renal): 11.7 µM | TGI (TK-10 renal): 26.6 µM | GI50 (U251 CNS): 1.86 µM | TGI (U251 CNS): 3.73 µM | GI50 (UACC-257 melanoma): 2.44 µM | TGI (UACC-257 melanoma): 7.17 µM | GI50 (UACC-62 melanoma): 1.64 µM | TGI (UACC-62 melanoma): 3.16 µM | GI50 (UO-31 renal): 1.63 µM | TGI (UO-31 renal): 3.07 µM

From PubChem BioAssay (NCI)
